Source: US8426568B2 (University of Virginia Patent Foundation, priority 2006, dated 2013)
Values after ≈ are worked out from the molar mass of the structure shown. Read-outs that look alike come from different tables or passages of the source.

Tests used:
[1] = biological target: recombinant, constitutively active RSK2 (Homo sapiens, UniProt P51812); assay: in vitro RSK kinase assay; assay type: biochemical; settings: 10 μM ATP, 30 min, read-out: IC50 for inhibition of RSK catalytic activity in vitro
Sequence of recombinant, constitutively active RSK2 (P51812 1-397 limits assumed): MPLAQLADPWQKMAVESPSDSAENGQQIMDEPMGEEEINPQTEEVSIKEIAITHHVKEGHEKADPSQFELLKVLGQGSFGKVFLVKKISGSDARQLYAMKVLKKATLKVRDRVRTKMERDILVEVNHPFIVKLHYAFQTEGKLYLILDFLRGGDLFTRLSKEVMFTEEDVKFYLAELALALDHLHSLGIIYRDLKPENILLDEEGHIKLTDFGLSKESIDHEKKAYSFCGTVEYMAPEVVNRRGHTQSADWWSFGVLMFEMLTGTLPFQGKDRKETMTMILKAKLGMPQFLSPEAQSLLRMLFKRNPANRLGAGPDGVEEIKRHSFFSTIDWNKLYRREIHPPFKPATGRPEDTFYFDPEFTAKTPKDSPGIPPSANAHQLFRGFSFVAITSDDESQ

MCF-7 cells [2] = assay: MCF-7 cell proliferation (CellTiter-Glo); assay type: cell-based, human; settings: for inhibition of MCF-7 cell proliferation at 50 μM: 72 h
Method: (2A) The potency of purified compounds in inhibiting RSK catalytic activity in vitro was measured. Kinase assays were performed using immobilized substrate. The reactions were initiated by the addition of 10 μM ATP (final concentration). Reactions were terminated after 30 min. All assays measured the initial reaction velocity. The extent of phosphorylation was determined using phosphospecific antibodies in combination with HRP-conjugated secondary antibodies. HRP activity was measured as described in the Experimental. Maximum and minimum activity is the relative luminescence detected in the presence of vehicle and 200 mM EDTA, respectively. Points, mean (n=2 in triplicate); bars=SD. (2B) The potency of purified compounds as inhibitors of MCF-7 cell proliferation was determined. […] Values given are the fold proliferation. Points, mean (n=3 in quadruplicate); bars=SD.
(§1) The cell number was measured after 48 h of treatment. Values given are the fold proliferation as a percentage of that observed with vehicle-treated cells. Points, mean (n=2 in quadruplicate); bars=SD.
(§2) For proliferation studies cells were seeded at 5000 cells per well in 96 well tissue culture plates in the appropriate medium as described by American Type Culture Collection. After 24 hours, the medium was replaced with medium containing compound or vehicle as indicated. Cell viability was measured at indicated time points using CellTiter-Glo™ assay reagent (Promega, Madison, Wis.) according to manufacturer's protocol. Maximum responses and the concentrations of half the effective response (EC50) were determined by performing a best-fit analysis of the data (GraphPad Prism). For specificity studies, cells were seeded at 3×10^5 cells/well in 6 well plates. After 24 hours, the cells were serum-starved for 24 hours then incubated with compound or vehicle for 4 hours prior to a 20 minute treatment with PDB. Cells were lysed with boiling SDS-sample buffer without dithiothreitol (DTT). The lysates were normalized for total protein, and DTT was added to an aliquot, which was electrophoresed and immunoblotted. Antibodies used on cell lysates included anti-pan-MAPK (anti-ERK1/2) (610124) from BD Transduction Laboratories; anti-phospho-MAPK (V8031) from Promega; anti-eEF2 (2332), anti-phospho-eEF2 (2331), anti-phospho-Akt Substrate (9611), anti-phospho-PKA Substrate (9621), and anti-phospho-PKC Substrate (2261) from Cell Signaling Technology. Anti-Ran was a generous gift from Ian Macara (University of Virginia).

MCF-10A cells [3] = assay: MCF-10A cell proliferation (CellTiter-Glo); assay type: cell-based, human; settings: 48 h treatment
Method: as §1
as §2, with “Antibodies used on cell lysates included anti-pan-MAPK (anti-ERK1/2) (610124) from BD Transduction Laboratories; anti-phospho-MAPK (V8031) from Promega; anti-eEF2 (2332), anti-phospho-eEF2 (2331), anti-phospho-Akt Substrate (9611), anti-phospho-PKA Substrate (9621), and anti-phospho-PKC Substrate (2261) from Cell Signaling Technology. Anti-Ran was a generous gift from Ian Macara (University of Virginia).” left out

MAPK = assay: PDB-stimulated MAPK activation in MCF-7 cells (anti-active MAPK immunoblot); assay type: cell-based, human; settings: serum-deprived MCF-7; 4 h pre-incubation; 500 nM PDB 20 min
Method: (3A) The potency of the synthesized compounds in inhibiting RSK catalytic activity in vitro was measured as described in FIG. 2A and is graphically illustrated. (3B) Represents an images of immunoblots where serum-deprived MCF-7 cells were pre-incubated with vehicle, or the indicated concentration of inhibitor for 4 h. Cells were treated with 500 nM PDB or vehicle for 20 min prior to lysis. Protein concentration of lysates was measured and lysates were electrophoresed, transferred and immunoblotted.
For proliferation studies cells were seeded at 5000 cells per well in 96 well tissue culture plates in the appropriate medium as described by American Type Culture Collection. After 24 hours, the medium was replaced with medium containing compound or vehicle as indicated. Cell viability was measured at indicated time points using CellTiter-Glo™ assay reagent (Promega, Madison, Wis.) according to manufacturer's protocol. Maximum responses and the concentrations of half the effective response (EC50) were determined by performing a best-fit analysis of the data (GraphPad Prism). For specificity studies, cells were seeded at 3×10^5 cells/well in 6 well plates. After 24 hours, the cells were serum-starved for 24 hours then incubated with compound or vehicle for 4 hours prior to a 20 minute treatment with PDB. Cells were lysed with boiling SDS-sample buffer without dithiothreitol (DTT). […]

PKA, PKC and AKT = assay: phosphorylation patterns in MCF-7 cells with phospho-PKA, -PKC, -AKT substrate antibodies (specificity); assay type: cell-based, human; settings: pre-incubation before PDB
Method: MCF-7 cell lysates normalized for protein concentration were electrophoresed, transferred and immunoblotted with anti-phospho-PKA substrate, anti-phospho-PKC substrate or anti-phospho-AKT substrate.
as §2
The lysates were immunoblotted with multiple phospho-specific substrate antibodies.

[4] = calculated LogP (Molinspiration Property Calculation Service); settings: relative to SL0101, from calculated LogP
Method: Reagents and solvents were reagent grade and used without further purification. Methylene chloride was distilled from calcium hydride. Anhydrous grade THF was purchased from VWR. All reactions involving air or moisture sensitive reagents or intermediates were performed under a nitrogen or argon atmosphere. Flash chromatography was performed using Silicycle 40-60 mesh silica gel. Analytical TLC was performed using 0.25 mm EM silica gel 60 […] plates that were visualized by irradiation (254 nm) or by staining with Hanessian's stain (cerium molybdate). Optical rotations were obtained using a Jasco digital polarimeter. ^1H and ^13C NMR spectra were obtained using 300 MHz and 500 MHz Varian instruments. Chemical shifts are reported in parts per million (ppm δ) referenced to the residual ^1H resonance of the solvent (CDCl3, 7.26 ppm; DMSO-d6, 2.49 ppm). ^13C spectra were referenced to the residual ^13C resonance of the solvent (CDCl3, 77.3 ppm; DMSO-d6, 39.5 ppm). Splitting patterns are designated as follows: s, singlet; br, broad; d, doublet; dd, doublet of doublets; t, triplet; q, quartet; m, multiplet. High resolution mass spectra were obtained at the Michigan State University-NIH Mass Spectrometry Facility. LogP values were calculated using Molinspiration Property Calculation Service (see their website).

[5] = maximum solubility in tissue culture media; assay type: physicochemical; settings: aqueous buffer
RSK = assay: eEF2 phosphorylation in PDB-stimulated MCF-7 cells (RSK activity in intact cells); assay type: cell-based, human; settings: serum-deprived MCF-7; 4 h pre-incubation; 500 nM PDB 20 min
Text: Therefore, the phosphorylation state of eEF2 during mitogenic stimulation is an indicator of RSK activity.

MCF-7 cells [6] = settings: cited from earlier work
MCF-10A cells [7] = settings: background; cited from earlier work
[8] = compounds purified from F. refracta

Row | IC50 [1, 8] [nM] | SMILES | inhibition of MCF-7 cell proliferation at 50 μM (MCF-7 cells [2]) | effect on PDB-induced MAPK activation / upstream kinases (MEK, Raf, PKC) (MAPK) | effect on phosphorylation patterns (phospho-PKA, -PKC, -AKT substrate antibodies) (PKA, PKC and AKT) | specificity for RSK in intact cells (PKA, PKC and AKT) | effect on eEF2 phosphorylation after PDB (RSK) | other results
1 | ~260 | CC(=O)OC1C(C)OC(Oc2c(-c3ccc(O)cc3)oc3cc(O)cc(O)c3c2=O)C(OC(C)=O)C1O [2″,4″-di-O-acetyl-SL0101, kaempferol 3-O-(2″,4″-di-O-acetyl-α-L-rhamnopyranoside)] | similarly effective at inhibiting MCF-7 cell growth | – | – | – | – | –
2 | ~140 | CC(=O)OC1C(C)OC(Oc2c(-c3ccc(O)cc3)oc3cc(O)cc(O)c3c2=O)C(O)C1O [4″-mono-O-acetyl-SL0101, kaempferol 3-O-(4″-mono-O-acetyl-α-L-rhamnopyranoside)] | did not inhibit MCF-7 cell proliferation | – | – | – | – | –

More lines, now with the values behind:

Row | SMILES | IC50 [1, 8] [nM] | inhibition of MCF-7 cell proliferation at 50 μM (MCF-7 cells [2]) | effect on PDB-induced MAPK activation / upstream kinases (MEK, Raf, PKC) (MAPK) | effect on phosphorylation patterns (phospho-PKA, -PKC, -AKT substrate antibodies) (PKA, PKC and AKT) | specificity for RSK in intact cells (PKA, PKC and AKT) | effect on eEF2 phosphorylation after PDB (RSK) | other results
3 | CCCC(=O)O[C@@H]1[C@@H](OC(=O)CCC)[C@@H](O)[C@H](Oc2c(-c3ccc(O)cc3)oc3cc(O)cc(O)c3c2=O)O[C@H]1C [Bu-SL0101, kaempferol 3-O-(3″,4″-di-O-butyryl-α-L-rhamnopyranoside)] | – | – | do not inhibit upstream kinases necessary for PDB-induced MAPK activation | decreased the PDB-induced phosphorylation of a ˜25 kDa protein | not specific for inhibition of RSK activity | – | IC50 ([1]; synthesized compounds): 212 nM; EC50 (MCF-7 cells [2]; Homo sapiens, MCF7, 48 h treatment, read-out: EC50 for inhibition of MCF-7 proliferation): 40000 nM; concentration at which significant inhibition of MCF-10A proliferation began (MCF-10A cells [3]): 100 µM; increase in hydrophobicity [4]: > 50 fold; solubility [5]: ~100 µM (≈ 57.3 µg/mL)
4 | CC(=O)OC1C(C)OC(Oc2c(-c3ccc(O)cc3)oc3cc(O)cc(O)c3c2=O)C(O)C1OC(C)=O [SL0101, kaempferol 3-O-(3″,4″-di-O-acetyl-α-L-rhamnopyranoside), reference compound] | – | similarly effective at inhibiting MCF-7 cell growth | do not inhibit upstream kinases necessary for PDB-induced MAPK activation | similar | demonstrates specificity for RSK in intact cells | eliminated PDB-mediated inactivation of eEF2K | proliferation of the human breast cancer cell line MCF-7 (MCF-7 cells [6]; background): inhibits proliferation; EC50 (MCF-7 cells [6]; previously reported (ref 4), current results in agreement, read-out: EC50 for inhibition of MCF-7 cell proliferation): ~50000 nM; growth of the normal human breast line MCF-10A (MCF-10A cells [7]): does not prevent the growth
5 | N#CC(=C(/N)Sc1ccccc1N)/C(C#N)=C(\N)Sc1ccccc1N [U0126, reference compound] | – | – | – | PDB-induced phosphorylation is inhibited | – | levels of eEF2 phosphorylation also remained increased | –
